Measured values reported in patent publication US20090181963A1, “3H-[1,2,3]TRIAZOLO[4,5-D]PYRIMIDINE COMPOUNDS, THEIR USE AS mTOR KINASE AND PI3 KINASE INHIBITORS, AND THEIR [sequence]” (Wyeth, priority 2008, published 2009).

Key:
[1] = molecular target: PI3 Kinase α (Homo sapiens, UniProt P42336); experiment: Fluorescence polarization assay for PI3K (PI3 Kinase α); assay type: biochemical; details: diC8-PI(4,5)P2 substrate, 25 μM ATP, one hour at 25° C.
Protocol: (§1) Nunc 384 well black polypropylene fluorescent plates were used for PI3K assays. Reactions were quenched by the addition of EDTA to a final concentration of 10 μM. Final reaction volumes were 10 ml. […] Reactions were allowed to proceed for one hour at 25° C. After I hour, GST-tagged GRP1 (general receptor for phosphoinositides) PH domain fusion protein was added to a final concentration of 100 nM, and BODIPY-TMRI(1,3,4,5)P4 (Echelon) was also added to a final concentration of 5 nM. Final sample volumes were 25 μl with a final DMSO concentration of 0.8%. Assay Plates were read on PerkinElmer Envision plate readers with appropriate filters for Tamra [BODIPY-TMRI(1,3,4,5)P4]. Data obtained were used to calculate enzymatic activity and enzyme inhibition by inhibitor compounds.

[2] = molecular target: PI3 Kinase γ (Homo sapiens, UniProt P48736); experiment: Fluorescence polarization assay for PI3K (PI3 Kinase γ); assay type: biochemical; details: diC8-PI(4,5)P2 substrate, 25 μM ATP, one hour at 25° C.
Sequence of PI3 Kinase γ (P48736 whole entry): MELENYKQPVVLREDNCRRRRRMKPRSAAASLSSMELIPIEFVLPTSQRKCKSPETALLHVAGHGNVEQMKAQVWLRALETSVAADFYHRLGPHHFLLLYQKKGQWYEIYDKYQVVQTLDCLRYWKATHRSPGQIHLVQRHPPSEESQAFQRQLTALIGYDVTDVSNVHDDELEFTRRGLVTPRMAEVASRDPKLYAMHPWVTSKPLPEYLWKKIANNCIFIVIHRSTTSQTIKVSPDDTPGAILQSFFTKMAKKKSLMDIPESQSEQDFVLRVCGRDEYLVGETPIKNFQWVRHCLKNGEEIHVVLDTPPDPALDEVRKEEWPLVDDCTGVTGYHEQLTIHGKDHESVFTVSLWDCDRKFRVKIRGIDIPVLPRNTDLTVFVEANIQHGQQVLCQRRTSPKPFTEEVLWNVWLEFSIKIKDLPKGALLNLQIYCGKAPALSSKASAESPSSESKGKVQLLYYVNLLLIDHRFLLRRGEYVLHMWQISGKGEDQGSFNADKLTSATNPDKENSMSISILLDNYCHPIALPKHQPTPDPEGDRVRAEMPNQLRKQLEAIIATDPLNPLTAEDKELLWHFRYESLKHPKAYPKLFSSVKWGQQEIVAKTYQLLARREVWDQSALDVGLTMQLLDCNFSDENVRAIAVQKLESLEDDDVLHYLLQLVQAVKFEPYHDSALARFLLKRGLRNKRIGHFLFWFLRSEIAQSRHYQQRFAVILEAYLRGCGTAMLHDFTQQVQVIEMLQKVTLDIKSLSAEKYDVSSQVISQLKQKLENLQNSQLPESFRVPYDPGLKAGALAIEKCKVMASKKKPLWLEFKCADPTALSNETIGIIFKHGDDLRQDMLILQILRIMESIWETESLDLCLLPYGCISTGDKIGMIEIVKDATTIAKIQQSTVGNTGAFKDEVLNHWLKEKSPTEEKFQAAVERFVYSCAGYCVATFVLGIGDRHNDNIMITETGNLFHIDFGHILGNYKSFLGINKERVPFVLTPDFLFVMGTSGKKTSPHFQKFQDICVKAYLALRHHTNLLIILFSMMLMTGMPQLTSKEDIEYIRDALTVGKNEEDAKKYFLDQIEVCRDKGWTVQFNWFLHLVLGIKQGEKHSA
Protocol: as §1

Sequence of PI3 Kinase α (P42336 whole entry): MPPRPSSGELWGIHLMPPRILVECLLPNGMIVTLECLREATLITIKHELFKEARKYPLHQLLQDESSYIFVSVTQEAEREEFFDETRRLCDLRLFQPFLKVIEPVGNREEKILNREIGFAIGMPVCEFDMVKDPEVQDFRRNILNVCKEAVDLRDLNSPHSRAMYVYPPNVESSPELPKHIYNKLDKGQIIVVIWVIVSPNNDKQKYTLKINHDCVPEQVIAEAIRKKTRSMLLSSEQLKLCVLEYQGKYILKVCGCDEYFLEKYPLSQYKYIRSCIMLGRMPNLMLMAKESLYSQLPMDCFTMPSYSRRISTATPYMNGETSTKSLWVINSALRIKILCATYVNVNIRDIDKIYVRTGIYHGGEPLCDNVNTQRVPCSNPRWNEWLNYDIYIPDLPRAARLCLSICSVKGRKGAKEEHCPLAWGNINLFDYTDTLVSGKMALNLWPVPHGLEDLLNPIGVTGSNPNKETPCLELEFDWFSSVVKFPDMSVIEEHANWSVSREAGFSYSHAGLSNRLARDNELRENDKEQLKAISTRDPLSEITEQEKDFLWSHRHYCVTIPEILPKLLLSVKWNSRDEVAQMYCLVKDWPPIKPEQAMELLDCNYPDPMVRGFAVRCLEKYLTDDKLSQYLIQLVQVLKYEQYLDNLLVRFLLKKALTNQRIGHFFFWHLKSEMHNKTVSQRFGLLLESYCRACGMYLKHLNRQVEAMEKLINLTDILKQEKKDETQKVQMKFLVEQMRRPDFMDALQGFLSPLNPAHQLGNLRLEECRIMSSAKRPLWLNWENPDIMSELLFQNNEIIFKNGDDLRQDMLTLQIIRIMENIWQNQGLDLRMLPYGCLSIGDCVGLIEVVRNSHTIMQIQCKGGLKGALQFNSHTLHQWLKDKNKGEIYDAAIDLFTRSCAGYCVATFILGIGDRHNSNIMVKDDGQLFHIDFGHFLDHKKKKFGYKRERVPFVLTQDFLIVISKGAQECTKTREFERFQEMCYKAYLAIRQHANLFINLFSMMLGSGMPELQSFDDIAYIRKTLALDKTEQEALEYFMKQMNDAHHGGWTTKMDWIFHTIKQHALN
Sequence of PI3 Kinase α (P27986 whole entry partner): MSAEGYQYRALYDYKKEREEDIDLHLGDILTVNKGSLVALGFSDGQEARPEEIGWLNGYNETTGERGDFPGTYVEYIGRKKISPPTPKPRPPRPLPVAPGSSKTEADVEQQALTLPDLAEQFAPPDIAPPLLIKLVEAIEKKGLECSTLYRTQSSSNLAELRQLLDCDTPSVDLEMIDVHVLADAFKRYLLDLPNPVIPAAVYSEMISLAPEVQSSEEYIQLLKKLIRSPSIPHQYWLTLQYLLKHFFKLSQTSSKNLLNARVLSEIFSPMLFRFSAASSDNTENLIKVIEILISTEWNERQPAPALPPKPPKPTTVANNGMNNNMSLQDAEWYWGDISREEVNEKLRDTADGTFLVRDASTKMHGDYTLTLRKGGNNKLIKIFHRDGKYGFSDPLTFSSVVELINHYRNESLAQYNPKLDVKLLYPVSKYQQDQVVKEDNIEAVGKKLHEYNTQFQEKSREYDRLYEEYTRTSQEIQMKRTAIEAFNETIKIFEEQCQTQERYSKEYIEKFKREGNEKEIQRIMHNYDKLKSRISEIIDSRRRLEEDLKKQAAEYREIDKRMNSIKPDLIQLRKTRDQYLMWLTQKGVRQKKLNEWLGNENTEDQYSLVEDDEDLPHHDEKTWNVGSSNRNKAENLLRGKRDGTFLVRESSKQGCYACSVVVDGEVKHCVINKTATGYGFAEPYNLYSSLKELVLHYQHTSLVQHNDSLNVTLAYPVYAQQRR

Row | Compound | IC50 [1] | IC50 [2]
1 | CN(C)CCNC(=O)Nc1ccc(-c2nc(N3CCOCC3)c3nnn(C4CCN(Cc5ccc(F)nc5)CC4)c3n2)cc1 [Example 157, 1-(2-(dimethylamino)ethyl)-3-(4-(3-(1-((6-fluoropyridin-3-yl)methyl)piperidin-4-yl)-7-morpholino-3H-[1,2,3]triazolo[4,5-d]pyrimidin-5-yl)phenyl)urea] | 0.061 µM | 0.144 µM
2 | Cc1ccc(CN2CCC(n3nnc4c(N5CCOCC5)nc(-c5ccc(NC(=O)NCCN(C)C)cc5)nc43)CC2)s1 [Example 158, 1-(2-(dimethylamino)ethyl)-3-(4-(3-(1-((5-methylthiophen-2-yl)methyl)piperidin-4-yl)-7-morpholino-3H-[1,2,3]triazolo[4,5-d]pyrimidin-5-yl)phenyl)urea] | 0.0745 µM | 0.342 µM
3 | CCCCN1CCC(n2nnc3c(N4CCOCC4)nc(-c4ccc(NC(=O)NCCN(C)C)cc4)nc32)CC1 [Example 159, 1-(4-(3-(1-butylpiperidin-4-yl)-7-morpholino-3H-[1,2,3]triazolo[4,5-d]pyrimidin-5-yl)phenyl)-3-(2-(dimethylamino)ethyl)urea] | 0.166 µM | 0.685 µM
4 | CN(C)CCNC(=O)Nc1ccc(-c2nc(N3CCOCC3)c3nnn(C4CCN(Cc5ccc(-c6ccncc6)cc5)CC4)c3n2)cc1 [Example 160, 1-(2-(dimethylamino)ethyl)-3-(4-(7-morpholino-3-(1-(4-(pyridin-4-yl)benzyl)piperidin-4-yl)-3H-[1,2,3]triazolo[4,5-d]pyrimidin-5-yl)phenyl)urea] | 0.013 µM | 0.108 µM
5 | CN(C)CCNC(=O)Nc1ccc(-c2nc(N3CCOCC3)c3nnn(C4CCN(Cc5ccc[nH]5)CC4)c3n2)cc1 [Example 161, 1-(4-(3-(1-((1H-pyrrol-2-yl)methyl)piperidin-4-yl)-7-morpholino-3H-[1,2,3]triazolo[4,5-d]pyrimidin-5-yl)phenyl)-3-(2-(dimethylamino)ethyl)urea] | 0.08 µM | 0.286 µM
6 | CN(C)CCCOc1ccc(CN2CCC(n3nnc4c(N5CCOCC5)nc(-c5ccc(NC(=O)NCCN(C)C)cc5)nc43)CC2)cc1 [Example 162, 1-(2-(dimethylamino)ethyl)-3-(4-(3-(1-(4-(3-(dimethylamino)propoxy)benzyl)piperidin-4-yl)-7-morpholino-3H-[1,2,3]triazolo[4,5-d]pyrimidin-5-yl)phenyl)urea] | 0.0115 µM | 0.104 µM
7 | O=C(Nc1ccc(-c2nc(N3CCOCC3)c3nnn(C4CCNCC4)c3n2)cc1)Nc1cccnc1 [Example 163, 1-[4-(7-morpholin-4-yl-3-piperidin-4-yl-3H-[1,2,3]triazolo[4,5-d]pyrimidin-5-yl)phenyl]-3-pyridin-3-ylurea] | 0.0135 µM | 0.0495 µM
8 | CN1CCC(n2nnc3c(N4CCOCC4)nc(-c4ccc(NC(=O)Nc5cccnc5)cc4)nc32)CC1 [Example 164, 1-{4-[3-(1-methylpiperidin-4-yl)-7-morpholin-4-yl-3H-[1,2,3]triazolo[4,5-d]pyrimidin-5-yl]phenyl}-3-pyridin-3-ylurea] | 0.022 µM | 0.147 µM
9 | CC(C)(C)OC(=O)N1CCC(n2nnc3c(N4CCOCC4)nc(-c4ccc(NC(=O)Nc5ccc(F)cc5)cc4)nc32)CC1 [Example 165, tert-butyl 4-[5-(4-{[(4-fluorophenyl)carbamoyl]amino}phenyl)-7-morpholin-4-yl-3H-[1,2,3]triazolo[4,5-d]pyrimidin-3-yl]piperidine-1-carboxylate] | 0.151 µM | 3.58 µM
10 | CC(C)(C)OC(=O)N1CCC(n2nnc3c(N4CCOCC4)nc(-c4ccc(NC(=O)Nc5ccncc5)cc4)nc32)CC1 [Example 166, tert-butyl 4-(7-morpholin-4-yl-5-{4-[(pyridin-4-ylcarbamoyl)amino]phenyl}-3H-[1,2,3]triazolo[4,5-d]pyrimidin-3-yl)piperidine-1-carboxylate] | 0.0365 µM | 0.494 µM
11 | O=C(Nc1ccncc1)Nc1ccc(-c2nc(N3CCOCC3)c3nnn(C4CCNCC4)c3n2)cc1 [Example 167, 1-[4-(7-morpholin-4-yl-3-piperidin-4-yl-3H-[1,2,3]triazolo[4,5-d]pyrimidin-5-yl)phenyl]-3-pyridin-4-ylurea] | 0.009 µM | 0.0915 µM
12 | CNC(=O)Nc1ccc(-c2nc(N3CCOCC3)c3nnn(C4CCN(C(=O)OC(C)(C)C)CC4)c3n2)cc1 [Example 168, tert-butyl 4-(5-{4-[(methylcarbamoyl)amino]phenyl}-7-morpholin-4-yl-3H-[1,2,3]triazolo[4,5-d]pyrimidin-3-yl)piperidine-1-carboxylate] | 0.2 µM | 3.24 µM
13 | COC(=O)NC(=O)Nc1ccc(-c2nc(N3CCOCC3)c3nnn(C4CCN(C(=O)OC(C)(C)C)CC4)c3n2)cc1 [Example 169, tert-butyl 4-[5-(4-{[(methoxycarbonyl)carbamoyl]amino}phenyl)-7-morpholin-4-yl-3H-[1,2,3]triazolo[4,5-d]pyrimidin-3-yl]piperidine-1-carboxylate] | > 10 µM | > 10 µM
14 | O=C(Nc1ccc(-c2nc(N3CCOCC3)c3nnn(C4CCN(Cc5ccccc5)CC4)c3n2)cc1)Nc1cccc(Cl)c1 [Example 170, 1-{4-[3-(1-benzylpiperidin-4-yl)-7-morpholin-4-yl-3H-[1,2,3]triazolo[4,5-d]pyrimidin-5-yl]phenyl}-3-(3-chlorophenyl)urea] | 5.63 µM | 10.4 µM
15 | Nc1ncc(CN2CCC(n3nnc4c(N5CCOCC5)nc(-c5cncc(O)c5)nc43)CC2)s1 [Example 171, 5-(3-{1-[(2-amino-1,3-thiazol-5-yl)methyl]piperidin-4-yl}-7-morpholin-4-yl-3H-[1,2,3]triazolo[4,5-d]pyrimidin-5-yl)pyridin-3-ol] | 0.0765 µM | 0.144 µM
16 | CCN1CCCC1Cn1nnc2c(N3CCOCC3)nc(-c3cccc(O)c3)nc21 (stereo not drawn) [Example 172, 3-{3-[(1-ethylpyrrolidin-2-yl)methyl]-7-morpholin-4-yl-3H-[1,2,3]triazolo[4,5-d]pyrimidin-5-yl}phenol] | 0.204 µM | 1.23 µM
17 | OCc1cncc(-c2nc(N3CCOCC3)c3nnn(C4CCN(Cc5ccccc5)CC4)c3n2)c1 [Example 173, {5-[3-(1-benzylpiperidin-4-yl)-7-morpholin-4-yl-3H-[1,2,3]triazolo[4,5-d]pyrimidin-5-yl]pyridin-3-yl}methanol] | 0.57 µM | 1.85 µM
18 | OCc1cncc(-c2nc(N3CCOCC3)c3nnn(C4CCNCC4)c3n2)c1 [Example 174, [5-(7-morpholin-4-yl-3-piperidin-4-yl-3H-[1,2,3]triazolo[4,5-d]pyrimidin-5-yl)pyridin-3-yl]methanol] | 0.285 µM | 0.956 µM
19 | CCn1nnc2c(N3CCOCC3)nc(-c3ccc(N)c(OC)c3)nc21 [Example 175, 4-(3-ethyl-7-morpholin-4-yl-3H-[1,2,3]triazolo[4,5-d]pyrimidin-5-yl)-2-methoxyaniline] | 1.41 µM | 9.11 µM
20 | OCc1cccc(-c2nc(N3CCOCC3)c3nnn(C4CCNCC4)c3n2)c1 [Example 176, [3-(7-morpholin-4-yl-3-piperidin-4-yl-3H-[1,2,3]triazolo[4,5-d]pyrimidin-5-yl)phenyl]methanol] | 0.0237 µM | 0.164 µM
21 | OCc1cccc(-c2nc(N3CCOCC3)c3nnn(C4CCN(Cc5ccccc5)CC4)c3n2)c1 [Example 177, {3-[3-(1-benzylpiperidin-4-yl)-7-morpholin-4-yl-3H-[1,2,3]triazolo[4,5-d]pyrimidin-5-yl]phenyl}methanol] | 0.0835 µM | 0.435 µM
